Source: US20260200939A1, “MOLECULAR GLUE DEGRADER COMPOUNDS AND USES THEREOF” (Novartis AG, priority 2022, published 2026)
Values belong to the compound of their own block, whether it stands above or below them.

Experiments:
pure RNF126 protein = target: T1, pure RNF126 protein (Homo sapiens, UniProt Q9BV68); experiment: Mass spectrometry analysis of compound-labeled RNF126 tryptic digests; assay type: binding
T1 construct: FLAG (C); host or cells: HEK293T

[1] = target: T2, cysteine 32 (C32) on the RING-family E3 ubiquitin ligase RNF126 (Homo sapiens, UniProt Q9BV68); experiment: isoTOP-ABPP chemoproteomic profiling in C33A cells; assay type: cell-based; conditions: C33A cells treated in situ
T2 construct: endogenous in cells; host or cells: C33A
Description: IsoTOP-ABPP studies were done as previously reported (Weerapana, E. et al. Nature 468, 790-795 (2010); Spradlin, J. N. et al. Nat. Chem. Biol. 15, 747-755 (2019); Grossman, E. A. et al. Cell Chem. Biol. 24, 1368-1376.e4 (2017)). All of the isoTOP-ABPP datasets were prepared as described below using the IA-alkyne probe. Cells were lysed by probe sonication in PBS and protein concentrations were measured by BCA assay. Cells were treated for 2 h with either DMSO vehicle or compound before cell collection and lysis. Proteomes were subsequently labeled with IA-alkyne labeling (200 μM) for 1 h at room temperature. CuAAC was used by sequential addition of tris(2-carboxyethyl)phosphine (1 mM, Strem, 15-7400), tris[(1-benzyl-1H-1,2,3-triazol-4-yl)methyl]amine (34 μM, Sigma, 678937), copper(II) sulfate (1 mM, Sigma, 451657) and biotin-linker-azide—the linker functionalized with a tobacco etch virus (TEV) protease recognition sequence as well as an isotopically light or heavy valine for treatment of control or treated proteome, respectively. After CuAAC, proteomes were precipitated by centrifugation at 6,500 g, washed in ice-cold methanol, combined in a 1:1 control:treated ratio, washed again, then denatured and resolubilized by heating in 1.2% SDS-PBS to 90° C. for 5 min. Insoluble components were precipitated by centrifugation at 6,500 g and soluble proteome was diluted in 5 ml 0.2% SDS-PBS. […]

CDK4 = target: T3, CDK4 (Homo sapiens, UniProt P11802); experiment: RNF126 knockdown study of CDK4 degradation in C33A cells; assay type: cell-based
T3 construct: endogenous in cells; host or cells: C33A
Description: Proteins were resolved by SDS/PAGE and transferred to nitrocellulose membranes using the Trans-Blot Turbo transfer system (Bio-Rad). Membranes were blocked with 5% BSA in Tris-buffered saline containing Tween 20 (TBS-T) solution for 30 min at RT, washed in TBS-T, and probed with primary antibody diluted in recommended diluent per manufacturer overnight at 4° C. After 3 washes with TBS-T, the membranes were incubated in the dark with IR680- or IR800-conjugated secondary antibodies at 1:10,000 dilution in 5% BSA in TBS-T at RT for 1 h. After 3 additional washes with TBST, blots were visualized using an Odyssey Li-Cor fluorescent scanner. The membranes were stripped using ReBlot Plus Strong Antibody Stripping Solution (EMD Millipore) when additional primary antibody incubations were performed. Antibodies used in this study were CDK4 (Abcam ab108357), Vinculin (Abcam ab129002), GAPDH (Cell Signaling Technology 14C10), RNF126 (Santa Cruz Biotechnology sc-376005), BRD4 (Abcam ab128874), Beta Actin (Cell Signaling Technology 13E5), PDE5 (Abcam ab259945), AR-V7 (Abcam ab273500), c-Abl (Santa Cruz Biotechnology sc-23), SMARCA2 (Abcam ab240648), LRRK2 (Abcam ab133474), BTK (Cell Signaling Technology D3H5), Androgen Receptor (Abcam ab133273).
Short-hairpin oligonucleotides were used to knock down the expression of RNF126 in C33A cells. […]

Recombinant RNF126 = target: T4, Recombinant RNF126 (Homo sapiens, UniProt Q9BV68); experiment: RNF126 Binding Assay, gel-based ABPP
T4 construct: FLAG (C); host or cells: HEK293T
T4 sequence (Q9BV68 whole entry): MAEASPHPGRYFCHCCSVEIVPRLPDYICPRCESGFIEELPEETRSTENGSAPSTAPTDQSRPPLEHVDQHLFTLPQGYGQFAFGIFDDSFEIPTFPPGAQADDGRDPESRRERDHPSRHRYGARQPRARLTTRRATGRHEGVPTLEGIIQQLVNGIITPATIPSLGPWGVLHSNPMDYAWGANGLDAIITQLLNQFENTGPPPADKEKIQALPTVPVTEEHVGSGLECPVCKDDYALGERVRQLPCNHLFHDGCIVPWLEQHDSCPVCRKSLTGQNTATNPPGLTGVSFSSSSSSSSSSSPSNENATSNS
Method in brief: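 FLAG-tagged human RNF126, expressed in HEK293T and purified on anti-FLAG resin, was pretreated with DMSO or covalent ligand for 30 min at 37 °C in PBS. IA-rhodamine was then added for 1 h at RT in the dark. Probe labelling was read by SDS-PAGE in-gel fluorescence.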

BCR-ABL = target: T5, BCR-ABL (Homo sapiens, UniProt P00519); experiment: BCR-ABL degradation, Western blotting; assay type: cell-based
T5 construct: BCR (N-terminal part of P11274, natural fusion partner); endogenous in cells; host or cells: K562 (inferred); the other entry of the earlier key: BCR (P11274, Breakpoint cluster region protein)
T5 sequence (P00519 with tags, fused parts or gaps): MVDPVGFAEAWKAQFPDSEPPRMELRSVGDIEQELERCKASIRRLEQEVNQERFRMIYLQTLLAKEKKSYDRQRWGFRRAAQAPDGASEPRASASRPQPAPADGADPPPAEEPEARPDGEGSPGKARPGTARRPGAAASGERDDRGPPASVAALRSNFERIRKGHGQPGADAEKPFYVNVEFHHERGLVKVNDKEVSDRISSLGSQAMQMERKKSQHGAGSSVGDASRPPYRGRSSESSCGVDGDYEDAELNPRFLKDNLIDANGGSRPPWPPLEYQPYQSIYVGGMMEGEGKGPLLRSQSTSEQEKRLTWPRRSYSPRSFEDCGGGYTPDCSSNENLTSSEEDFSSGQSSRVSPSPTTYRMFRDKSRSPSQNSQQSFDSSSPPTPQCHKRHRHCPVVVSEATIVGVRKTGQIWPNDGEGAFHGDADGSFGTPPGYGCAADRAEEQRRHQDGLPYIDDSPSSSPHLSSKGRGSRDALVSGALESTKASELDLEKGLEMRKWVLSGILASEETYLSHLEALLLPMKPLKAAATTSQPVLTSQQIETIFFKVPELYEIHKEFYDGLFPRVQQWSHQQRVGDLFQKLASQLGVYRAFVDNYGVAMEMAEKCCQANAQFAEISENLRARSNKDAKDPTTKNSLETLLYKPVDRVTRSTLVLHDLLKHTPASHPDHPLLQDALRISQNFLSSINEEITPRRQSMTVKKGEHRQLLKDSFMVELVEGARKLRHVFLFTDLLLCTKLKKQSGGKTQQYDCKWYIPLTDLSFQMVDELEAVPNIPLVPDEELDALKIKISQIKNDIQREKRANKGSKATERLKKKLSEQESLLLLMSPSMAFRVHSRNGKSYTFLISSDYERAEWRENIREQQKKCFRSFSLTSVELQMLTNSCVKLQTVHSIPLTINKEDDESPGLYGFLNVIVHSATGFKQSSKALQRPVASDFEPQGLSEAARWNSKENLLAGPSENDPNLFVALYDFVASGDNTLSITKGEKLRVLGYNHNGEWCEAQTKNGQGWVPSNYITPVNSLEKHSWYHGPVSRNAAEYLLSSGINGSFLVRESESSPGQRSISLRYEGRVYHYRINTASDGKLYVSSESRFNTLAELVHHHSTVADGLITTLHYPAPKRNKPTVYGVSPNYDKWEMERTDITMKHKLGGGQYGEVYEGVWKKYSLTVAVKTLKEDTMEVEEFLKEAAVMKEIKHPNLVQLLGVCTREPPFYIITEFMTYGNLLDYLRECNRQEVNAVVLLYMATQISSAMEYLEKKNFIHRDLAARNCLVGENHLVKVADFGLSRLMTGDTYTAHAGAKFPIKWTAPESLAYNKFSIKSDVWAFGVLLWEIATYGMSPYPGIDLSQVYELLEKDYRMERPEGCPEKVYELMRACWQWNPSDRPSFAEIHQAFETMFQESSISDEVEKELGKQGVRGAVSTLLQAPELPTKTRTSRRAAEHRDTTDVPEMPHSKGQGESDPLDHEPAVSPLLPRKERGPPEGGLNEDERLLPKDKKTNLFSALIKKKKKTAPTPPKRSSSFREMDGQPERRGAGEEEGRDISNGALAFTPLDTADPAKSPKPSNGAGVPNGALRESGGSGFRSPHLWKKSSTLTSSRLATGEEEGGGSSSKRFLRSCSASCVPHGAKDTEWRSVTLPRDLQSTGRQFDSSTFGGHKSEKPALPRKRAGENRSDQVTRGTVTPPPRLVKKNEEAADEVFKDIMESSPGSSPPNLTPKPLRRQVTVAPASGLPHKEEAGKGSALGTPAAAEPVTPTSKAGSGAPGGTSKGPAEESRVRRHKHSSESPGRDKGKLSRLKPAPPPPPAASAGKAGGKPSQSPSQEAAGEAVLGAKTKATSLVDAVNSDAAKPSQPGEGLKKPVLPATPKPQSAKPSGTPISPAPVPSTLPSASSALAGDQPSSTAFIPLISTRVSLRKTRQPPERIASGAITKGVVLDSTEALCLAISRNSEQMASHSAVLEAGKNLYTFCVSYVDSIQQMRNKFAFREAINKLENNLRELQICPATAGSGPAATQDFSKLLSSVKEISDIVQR
Description: (§1) C33A cells were purchased from American Type Culture Collection (ATCC) and were cultured in Dulbecco's Modified Eagle Medium (DMEM) containing 10% (v/v) fetal bovine serum (FBS) and maintained at 37° C. with 5% CO2. 22RV1 cells were purchased from the ATCC and were cultured in RPMI-1640 Medium containing 10% (v/v) FBS and maintained at 37° C. with 5% CO2. HEK293T cells were obtained from the UC Berkeley Cell Culture Facility and were cultured in DMEM containing 10% (v/v) FBS and maintained at 37° C. with 5% CO2. K562 cells were obtained from the UC Berkeley Cell Culture Facility and were cultured in Iscove's Modified Dulbecco's Medium (IMDM) containing 10% (v/v) FBS and maintained at 37° C. with 5% CO2. MV-4-11 cells were obtained from the ATCC and were cultured in IMDM containing 10% (v/v) FBS and maintained at 37° C. with 5% CO2. A549 cells were obtained from the ATCC and were cultured in F-12K Medium containing 10% (v/v) FBS and maintained at 37° C. with 5% CO2. Mino cells were obtained from the ATCC and were cultured in RPMI-1640 Medium containing 10% (v/v) FBS and maintained at 37° C. with 5% CO2. […]
(§2) Cells were washed twice with cold PBS, scraped, and pelleted by centrifugation (700 g, 5 min, 4° C.). […] Proteome concentrations were determined using BCA assay and lysate was diluted to appropriate working concentrations. […]

c-ABL kinase = target: T6, c-ABL kinase (Homo sapiens, UniProt P00519); experiment: c-ABL degradation, Western blotting; assay type: cell-based
T6 construct: endogenous in cells; host or cells: K562 (inferred)
T6 sequence (P00519 whole entry): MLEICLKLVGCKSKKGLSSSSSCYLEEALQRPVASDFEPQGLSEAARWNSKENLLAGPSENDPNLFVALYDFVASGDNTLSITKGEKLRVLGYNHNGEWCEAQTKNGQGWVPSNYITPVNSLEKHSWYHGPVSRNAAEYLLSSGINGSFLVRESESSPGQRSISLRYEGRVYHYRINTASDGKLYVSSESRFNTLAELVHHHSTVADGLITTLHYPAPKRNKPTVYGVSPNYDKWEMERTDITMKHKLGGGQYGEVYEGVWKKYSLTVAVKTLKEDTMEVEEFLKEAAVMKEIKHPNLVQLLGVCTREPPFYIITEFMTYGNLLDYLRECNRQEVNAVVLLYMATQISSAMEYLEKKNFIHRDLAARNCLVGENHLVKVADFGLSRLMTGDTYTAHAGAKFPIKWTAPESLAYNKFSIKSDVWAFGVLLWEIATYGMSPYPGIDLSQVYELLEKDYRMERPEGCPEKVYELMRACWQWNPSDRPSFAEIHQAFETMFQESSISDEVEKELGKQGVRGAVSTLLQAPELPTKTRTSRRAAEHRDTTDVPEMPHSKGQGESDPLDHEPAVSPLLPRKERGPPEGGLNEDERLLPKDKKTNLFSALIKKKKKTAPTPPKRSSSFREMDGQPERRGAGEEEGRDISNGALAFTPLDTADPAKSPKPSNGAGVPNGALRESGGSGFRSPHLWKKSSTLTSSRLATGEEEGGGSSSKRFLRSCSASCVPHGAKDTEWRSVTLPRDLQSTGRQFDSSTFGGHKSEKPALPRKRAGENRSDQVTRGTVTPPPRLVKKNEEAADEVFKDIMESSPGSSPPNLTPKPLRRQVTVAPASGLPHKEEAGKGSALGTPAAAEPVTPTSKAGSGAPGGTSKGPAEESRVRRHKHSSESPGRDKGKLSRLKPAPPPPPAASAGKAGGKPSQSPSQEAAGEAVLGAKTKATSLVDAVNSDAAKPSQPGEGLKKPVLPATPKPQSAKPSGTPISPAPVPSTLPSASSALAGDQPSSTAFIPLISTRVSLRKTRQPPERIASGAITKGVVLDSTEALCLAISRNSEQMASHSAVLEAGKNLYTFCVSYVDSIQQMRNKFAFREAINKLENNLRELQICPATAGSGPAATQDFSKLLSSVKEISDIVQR
Description: as §1, §2

PDE5 = target: T7, PDE5 (Homo sapiens, UniProt O76074); experiment: PDE5 degradation in HEK293T cells, Western blotting; assay type: cell-based
T7 construct: endogenous in cells; host or cells: HEK293T
Description: as §1, §2

LRRK2 = target: T8, LRRK2 (Homo sapiens, UniProt Q5S007); experiment: LRRK2 loss in A549 lung cancer cells, Western blotting; assay type: cell-based
T8 construct: endogenous in cells; host or cells: A549
Description: as §1, §2

T1 sequence (Q9BV68 whole entry): as the sequence (Q9BV68 whole entry) above

cysteine engaged across the proteome (isoTOP-ABPP) [1]: covalently binds to cysteine 32 (C32)
effect of RNF126 knockdown on compound-mediated CDK4 degradation (CDK4): completely attenuated
SMILES: CN(C)C(=O)c1cc2cnc(Nc3ccc(N4CCN(C(=O)/C=C/c5ccc(C(F)(F)F)cc5)CC4)cn3)nc2n1C1CCCC1 [Compound 106]
adduct on RNF126 by mass spectrometry of tryptic digests (pure RNF126 protein): mass adduct of Compound 106 on pure RNF126 protein is observed
binding to RNF126 (gel-based ABPP), in words (Recombinant RNF126): confirms the interaction of Compound 106 with RNF126

binding to RNF126 (gel-based ABPP), in words (Recombinant RNF126): potent binding
SMILES: COc1ccc(C(=O)/C=C/C(=O)N2CCN(c3cc(Nc4ncc(C(=O)Nc5c(C)cccc5Cl)s4)nc(C)n3)CC2)cc1 [Compound 126]
degradation of BCR-ABL, in words (BCR-ABL): degradation of both BCR-ABL and c-ABL kinase in a dose-responsive manner
degradation of c-ABL kinase, in words (c-ABL kinase): degradation of both BCR-ABL and c-ABL kinase in a dose-responsive manner

binding to RNF126 (gel-based ABPP), in words (Recombinant RNF126): potent binding
SMILES: CCCc1nn(C)c2c(=O)[nH]c(-c3cc(S(=O)(=O)N4CCN(C(=O)/C=C/C(=O)c5ccc(OC)cc5)CC4)ccc3OCC)nc12 [Compound 127]
degradation of PDE5, in words (PDE5): degradation of PDE5 in HEK293T cells in a dose-responsive and proteasome-dependent manner

binding to RNF126 (gel-based ABPP), in words (Recombinant RNF126): potent binding
SMILES: CNc1nc(Nc2ccc(C(=O)N3CCN(C(=O)/C=C/C(=O)c4ccc(OC)cc4)CC3)cc2OC)ncc1Cl [Compound 129]
loss of LRRK2, in words (LRRK2): loss of LRRK2 in A549 lung cancer cells in a dose-responsive manner
